The structures appear in SMILES notation.

The target of this experiment is T1, human TGR5 (Homo sapiens, UniProt Q8TDU6).
T1 construct: expressed in transfected cells; host or cells: HEK293
T1 sequence (Q8TDU6 1-330): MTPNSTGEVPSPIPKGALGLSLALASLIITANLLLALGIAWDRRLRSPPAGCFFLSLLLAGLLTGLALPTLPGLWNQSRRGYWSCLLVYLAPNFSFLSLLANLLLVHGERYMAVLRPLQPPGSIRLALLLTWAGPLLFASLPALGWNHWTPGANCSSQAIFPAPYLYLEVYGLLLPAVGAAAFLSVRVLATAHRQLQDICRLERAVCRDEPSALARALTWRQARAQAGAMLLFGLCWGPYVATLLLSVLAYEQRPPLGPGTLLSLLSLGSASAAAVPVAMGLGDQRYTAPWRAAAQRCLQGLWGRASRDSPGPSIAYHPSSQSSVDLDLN
The experiment is described as follows: Cell-based TGR5 assay (cAMP generation, HTRF). The conditions noted are these: HEK293 cells stably transfected with human TGR5; cAMP by HTRF; 30 minutes at 37° C.; read-out: pEC50 Human TGR5 (converted). The method, boiled down: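 First, compounds in 3-fold serial dilution were placed in HBSS with 10 mM HEPES pH 7.4 and 0.5 mM IBMX. Next, human TGR5-expressing HEK293 cells were added and incubated 30 min at 37° C. Finally, cAMP was detected by HTRF and pEC50 derived by logistic fitting.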
In the case of `Cc1cc(COC2(c3cnccc3-c3ccccc3OC3CC3)CC2)c(Cl)cc1CCCCNC(=O)N[C@@H](C)C(=O)N[C@@H](C)C(=O)N[C@@H](C)C(=O)O` [Compound I-112, (2S)-2-[(2S)-2-[(2S)-2-[({4-[5-chloro-4-({1-[4-(2-cyclopropoxyphenyl)pyridin-3-yl]cyclopropoxy}methyl)-2-methylphenyl]butyl}carbamoyl)amino]propanamido]propanamido]propanoic acid], the EC50 is under 0.1 µM.
Next, `Cc1cc(COC2(c3cnccc3-c3ccccc3OC3CC3)CC2)c(Cl)cc1CCCCNC(=O)N[C@@H](CCCNC(=N)N)C(=O)O` [Compound I-113, (2S)-5-carbamimidamido-2-[({4-[5-chloro-4-({1-[4-(2-cyclopropoxyphenyl)pyridin-3-yl]cyclopropoxy}methyl)-2-methylphenyl]butyl}carbamoyl)amino]pentanoic acid]: under 0.1 µM; `Cc1cc(COC2(c3cnccc3-c3ccccc3OC3CC3)CC2)c(Cl)cc1CCCCNC(=O)N1CCN(C[C@H](O)[C@@H](O)[C@@H](O)[C@H](O)CO)CC1` [Compound I-114, N-{4-[5-chloro-4-({1-[4-(2-cyclopropoxyphenyl)pyridin-3-yl]cyclopropoxy}methyl)-2-methylphenyl]butyl}-4-[(2S,3R,4S,5R)-2,3,4,5,6-pentahydroxyhexyl]piperazine-1-carboxamide]: under 0.1 µM; `Cc1cc(COC2(c3cnccc3-c3ccccc3OC3CC3)CC2)c(Cl)cc1CCCCN(C)C(=O)NC[C@H](O)[C@@H](O)[C@H](O)[C@H](O)CO` [Compound I-115, 1-{4-[5-chloro-4-({1-[4-(2-cyclopropoxyphenyl)pyridin-3-yl]cyclopropoxy}methyl)-2-methylphenyl]butyl}-1-methyl-3-[(2S,3R,4R,5R)-2,3,4,5,6-pentahydroxyhexyl]urea]: under 0.1 µM.
The result for `COCCN(CCCCc1cc(Cl)c(COC2(c3cnccc3-c3ccccc3OC3CC3)CC2)cc1C)C(=O)NC[C@H](O)[C@@H](O)[C@H](O)[C@H](O)CO` [Compound I-116, 1-{4-[5-chloro-4-({1-[4-(2-cyclopropoxyphenyl)pyridin-3-yl]cyclopropoxy}methyl)-2-methylphenyl]butyl}-1-(2-methoxyethyl)-3-[(2S,3R,4R,5R)-2,3,4,5,6-pentahydroxyhexyl]urea] reads under 0.1 µM; that for `Cc1cc(COC2(c3cnccc3-c3ccccc3OC3CC3)CC2)c(Cl)cc1CCCCN(CCOCCO)C(=O)NC[C@H](O)[C@@H](O)[C@H](O)[C@H](O)CO` [Compound I-117, 1-{4-[5-chloro-4-({1-[4-(2-cyclopropoxyphenyl)pyridin-3-yl]cyclopropoxy}methyl)-2-methylphenyl]butyl}-1-[2-(2-hydroxyethoxy)ethyl]-3-[(2S,3R,4R,5R)-2,3,4,5,6-pentahydroxyhexyl]urea], under 0.1 µM.
The result for `Cc1cc(COC2(c3cnccc3-c3ccccc3OC3CC3)CC2)c(Cl)cc1CCCCN(CCCCCO)C(=O)NC[C@H](O)[C@@H](O)[C@H](O)[C@H](O)CO` [Compound I-118, 1-{4-[5-chloro-4-({1-[4-(2-cyclopropoxyphenyl)pyridin-3-yl]cyclopropoxy}methyl)-2-methylphenyl]butyl}-1-(5-hydroxypentyl)-3-[(2S,3R,4R,5R)-2,3,4,5,6-pentahydroxyhexyl]urea] reads under 0.1 µM; that for `Cc1cc(COC2(c3cnccc3-c3ccccc3OC3CC3)CC2)c(Cl)cc1CCCCNC(=O)N[C@H](CCCCN)C(=O)O` [Compound I-119, (2R)-6-amino-2-[({4-[5-chloro-4-({1-[4-(2-cyclopropoxyphenyl)pyridin-3-yl]cyclopropoxy}methyl)-2-methylphenyl]butyl}carbamoyl)amino]hexanoic acid], 0.126 to 1 µM.
As to `O=C(CCCCc1cc(Cl)c(COC2(c3cnccc3-c3ccccc3OC3CC3)CC2)cc1Cl)N(Cc1ccccc1)C[C@@H](O)[C@H](O)[C@H](O)[C@H](O)CO` [Compound I-120, N-benzyl-5-(2,5-dichloro-4-((1-(4-(2-cyclopropoxyphenyl)pyridin-3-yl)cyclopropoxy)methyl)phenyl)-N-((2R,3S,4R,5R)-2,3,4,5,6-pentahydroxyhexyl)pentanamide], the EC50 was 0.126 to 1 µM.
The result for `CN(CCO[C@@H]1O[C@H](CO)[C@@H](O)[C@H](O)[C@H]1O)C(=O)CCCCc1cc(Cl)c(COC2(c3cnccc3-c3ccccc3OC3CC3)CC2)cc1Cl` [Compound I-121, 5-(2,5-dichloro-4-((1-(4-(2-cyclopropoxyphenyl)pyridin-3-yl)cyclopropoxy)methyl)phenyl)-N-methyl-N-(2-(((2R,3R,4S,5S,6R)-3,4,5-trihydroxy-6-(hydroxymethyl)tetrahydro-2H-pyran-2-yl)oxy)ethyl)pentanamide] reads under 0.1 µM.
`O=C(CCCCc1cc(Cl)c(COC2(c3cnccc3-c3ccccc3OC3CC3)CC2)cc1Cl)N(CC(O)CO)C[C@H](O)[C@@H](O)[C@H](O)[C@H](O)CO` (stereo partly drawn) [Compound I-122, 5-(2,5-dichloro-4-((1-(4-(2-cyclopropoxyphenyl)pyridin-3-yl)cyclopropoxy)methyl)phenyl)-N-(2,3-dihydoxypropyl)-N-((2S,3R,4R,5R)-2,3,4,5,6-pentahydroxyhexyl) pentanamide]: the EC50 is under 0.1 µM.
Next, `CC[C@@H](O)CN(C[C@H](O)[C@@H](O)[C@H](O)[C@H](O)CO)C(=O)CCCCc1cc(Cl)c(COC2(c3cnccc3-c3ccccc3OC3CC3)CC2)cc1Cl` [Compound I-123, 5-[2,5-dichloro-4-({1-[4-(2-cyclopropoxyphenyl)pyridin-3-yl]cyclopropoxy}methyl)phenyl]-N-[(2R)-2-hydroxybutyl]-N-[(2S,3R,4R,5R)-2,3,4,5,6-pentahydroxyhexyl]pentanamide]: under 0.1 µM.
Next, `COC[C@H](O)CN(C[C@H](O)[C@@H](O)[C@H](O)[C@H](O)CO)C(=O)CCCCc1cc(Cl)c(COC2(c3cnccc3-c3ccccc3OC3CC3)CC2)cc1Cl` [Compound I-124, 5-[2,5-dichloro-4-({1-[4-(2-cyclopropoxyphenyl)pyridin-3-yl]cyclopropoxy}methyl)phenyl]-N-[(2R)-2-hydroxy-3-methoxypropyl]-N-[(2S,3R,4R,5R)-2,3,4,5,6-pentahydroxyhexyl]pentanamide]: under 0.1 µM; `COC[C@@H](O)CN(C[C@H](O)[C@@H](O)[C@H](O)[C@H](O)CO)C(=O)CCCCc1cc(Cl)c(COC2(c3cnccc3-c3ccccc3OC3CC3)CC2)cc1Cl` [Compound I-125, 5-[2,5-dichloro-4-({1-[4-(2-cyclopropoxyphenyl)pyridin-3-yl]cyclopropoxy}methyl)phenyl]-N-[(2S)-2-hydroxy-3-methoxypropyl]-N-[(2S,3R,4R,5R)-2,3,4,5,6-pentahydroxyhexyl]pentanamide]: under 0.1 µM.
As for `O=C(CCCCc1cc(Cl)c(COC2(c3cnccc3-c3ccccc3OC3CC3)CC2)cc1Cl)N(Cc1ccccc1)C[C@H](O)[C@@H](O)[C@H](O)[C@H](O)CO` [Compound I-126, N-benzyl-5-(2,5-dichloro-4((1-(4-(2-cyclopropoxyphenyl)pyridin-3-yl)cyclopropoxy)methyl)phenyl)-N-((2S,3R,4R,5R)-2,3,4,5,6-pentahydroxyhexyl)pentanamide], the EC50 is 0.126 to 1 µM.

The record behind these values is patent US12084472B2 (Ardelyx, Inc., priority 2015, dated 2024).
